One assay addresses T1, 5-HT transporter (Rattus norvegicus, UniProt P31652).
T1 construct: synaptosomes of rat brain areas are freshly isolated; from tissue; host or cells: rat brain synaptosomes (P2 fraction) from marrow and pons
The assay is described as follows: Inhibition of 5-HT uptake in rat brain synaptosomes. The class given is biochemical. The following applies: Table III, rat, 1 μM; for inhibition at 1 µM: read-out: Uptake 5-HT, % inhibition.

Assay [1] has as its system batrachotoxin (BTX) binding site of the sodium channel. The assay can be described thus: Affinity to the batrachotoxin (BTX) binding site of the sodium channel. As to conditions: Table III; rat cerebrocortex synaptosomes; test concentration not given.

T1 sequence (P31652 whole entry): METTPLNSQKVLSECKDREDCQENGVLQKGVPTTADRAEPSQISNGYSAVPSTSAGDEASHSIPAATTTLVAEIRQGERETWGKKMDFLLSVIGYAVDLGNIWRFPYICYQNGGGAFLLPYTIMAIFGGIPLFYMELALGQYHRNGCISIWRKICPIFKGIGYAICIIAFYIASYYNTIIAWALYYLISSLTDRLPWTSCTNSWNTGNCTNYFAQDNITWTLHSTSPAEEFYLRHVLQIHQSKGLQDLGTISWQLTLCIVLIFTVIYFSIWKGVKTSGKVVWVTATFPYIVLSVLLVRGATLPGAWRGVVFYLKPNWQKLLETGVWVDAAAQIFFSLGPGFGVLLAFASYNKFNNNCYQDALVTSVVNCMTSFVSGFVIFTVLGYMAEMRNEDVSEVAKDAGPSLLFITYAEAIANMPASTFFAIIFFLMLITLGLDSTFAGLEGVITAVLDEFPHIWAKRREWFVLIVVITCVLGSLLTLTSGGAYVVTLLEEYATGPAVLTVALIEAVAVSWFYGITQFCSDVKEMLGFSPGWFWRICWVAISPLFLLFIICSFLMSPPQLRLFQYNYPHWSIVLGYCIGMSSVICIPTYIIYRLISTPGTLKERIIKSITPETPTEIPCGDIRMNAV

As usually defined, the inhibition is the percentage by which the read-out fell short of the control. As to `O=C(c1sccc1Cl)N1CCC2(CC1)NC(Cc1ccccc1)C(=O)N2Cc1ccccc1` (centres unmarked) [Example 172, 1,3-Dibenzyl-8-(3-chlorothiophene-2-carbonyl)-1,4,8-triazaspiro[4,5]decan-2-one], the inhibition at 1 µM on 5-HT transporter came to 76%. Moreover, in assay [1], the BTX inhibition was determined as 49.
On the same counts, the results for `CCCCN1C(=O)C(Cc2ccccc2)NC12CCN(C(=O)c1cc(F)ccc1C(F)(F)F)CC2` (centres unmarked) [Example 175, 3-Benzyl-1-butyl-8-(5-fluoro-2-trifluoromethylbenzoyl)-1,4,8-triazaspiro[4,5]decan-2-one] are 69% and 38.
The like results for `COc1ccc(CC(=O)N2CCC3(CC2)NC(Cc2ccccc2)C(=O)N3C)cc1` (centres unmarked) [Example 176, 3-Benzyl-8-[2-(4-methoxyphenyl)acetyl]-1-methyl-1,4,8-triazaspiro[4,5]decan-2-one] were, in that order, 37% and 30.
For `Cc1nnsc1C(=O)N1CCC2(CC1)NC(Cc1ccccc1)C(=O)N2Cc1ccccc1` (centres unmarked) [Example 177, 1,3-Dibenzyl-8-(4-methyl[1,2,3]thiadiazole-5-carbonyl)-1,4,8-triazaspiro[4,5]decan-2-one], the inhibition at 1 µM at 5-HT transporter was 79%. In assay [1], this molecule returned a BTX inhibition of 30.
As for `CCCCN1C(=O)C(Cc2ccccc2)NC12CCN(C(=O)C1CCCCC1)CC2` (centres unmarked) [Example 180, 3-Benzyl-1-butyl-8-cyclohexanecarbonyl-1,4,8-triazaspiro[4,5]decan-2-one], the inhibition at 1 µM at 5-HT transporter is 63%. Also, the BTX inhibition in assay [1] is reported as 42.
The like results for `CCCCN1C(=O)C(Cc2ccccc2)NC12CCN(C(=O)CCC1CCCC1)CC2` (centres unmarked) [Example 188, 3-Benzyl-1-butyl-8-(3-cyclopentylpropionyl)-1,4,8-triazaspiro[4,5]decan-2-one] were, in that order, 70% and 69.
With `COc1ccc(OC)c(CC(=O)N2CCC3(CC2)NC(CCSC)C(=O)N3Cc2ccccc2F)c1` (centres unmarked) [Example 195, 8-[2-(2,5-Dimethoxyphenyl)acetyl]-1-(2-fluorobenzyl)-3-(2-methylsulfanylethyl)-1,4,8-triazaspiro[4,5]decan-2-one], the inhibition at 1 µM on 5-HT transporter was found to be 50%. Also, the BTX inhibition in assay [1] amounted to 34.
On the same counts, the results for `CSCCC1NC2(CCN(C(=O)c3cccc(OC(F)(F)F)c3)CC2)N(Cc2cccc(C#N)c2)C1=O` (centres unmarked) [Example 200, 3-[3-(2-Methylsulfanylethyl)-2-oxo-8-(3-trifluoromethoxybenzoyl)-1,4,8-triazaspiro[4,5]dec-1-ylmethyl]benzonitrile] are 45% and 44.
With `CN1C(=O)C(Cc2ccccc2)NC12CCN(C(=O)C=Cc1ccccc1Cl)CC2` (centres unmarked) [Example 203, 3-Benzyl-8-[3-(2-chlorophenyl)acryloyl]-1-methyl-1,4,8-triazaspiro[4,5]decan-2-one], on 5-HT transporter, the inhibition at 1 µM came out at 34%. The molecule further returned a BTX inhibition in assay [1] of 48.
On the same counts, the results for `COC(=O)c1ccc(CN2C(=O)C(C(C)C)NC23CCN(C(=O)c2ccc(C(F)(F)F)c(F)c2)CC3)cc1` (centres unmarked) [Example 204, Methyl 4-[8-(3-fluoro-4-trifluoromethylbenzoyl)-3-isopropyl-2-oxo-1,4,8-triazaspiro[4,5]dec-1-ylmethyl]benzoate] are 42% and 44.
The like results for `CCCCN1C(=O)C(Cc2ccccc2)NC12CCN(C(=O)c1ccc(I)cc1)CC2` (centres unmarked) [Example 207, 3-Benzyl-1-butyl-8-(4-Iodobenzoyl)-1,4,8-triazaspiro[4,5]decan-2-one] were, in that order, 76% and 57.
On the same counts, the results for `O=C(CCCOc1ccccc1)N1CCC2(CC1)NC(Cc1ccccc1)C(=O)N2Cc1ccccc1` (centres unmarked) [Example 209, 1,3-Dibenzyl-8-(4-phenoxybutyryl)-1,4,8-triazaspiro[4,5]decan-2-one] are 69% and 67.
For the molecule `CC(C)CC1NC2(CCN(C(=O)c3cc(C(C)(C)C)nn3C)CC2)N(Cc2cccc(C#N)c2)C1=O` (centres unmarked) [Example 218, 3-[8-(5-tert-Butyl-2-methyl-2H-pyrazole-3-carbonyl)-3-isobutyl-2-oxo-1,4,8-triazaspiro[4,5]dec-1-ylmethyl]benzonitrile], the inhibition at 1 µM at 5-HT transporter is 57%. In addition, the BTX inhibition in assay [1] came to 39.
On the same counts, the results for `CSCCC1NC2(CCN(C(=O)CCC3CCCC3)CC2)N(Cc2ccccc2)C1=O` (centres unmarked) [Example 221, 1-Benzyl-8-(3-cyclopentylpropionyl)-3-(2-methylsulfanylethyl)-1,4,8-triazaspiro[4,5]decan-2-one] are 79% and 36.
On the same counts, the results for `O=C(C=Cc1ccccc1)N1CCC2(CC1)NC(Cc1ccccc1)C(=O)N2Cc1ccccc1` (centres unmarked) [Example 223, 1,3-Dibenzyl-8-(3-phenylacryloyl)-1,4,8-triazaspiro[4,5]decan-2-one] are 49% and 62.
The like results for `CC(C)C1NC2(CCN(C(=O)C=Cc3ccccc3Cl)CC2)N(CCOc2ccccc2)C1=O` (centres unmarked) [Example 225, 8-[3-(2-Chlorophenyl)acryloyl]-3-isopropyl-1-(2-phenoxyethyl)-1,4,8-triazaspiro[4,5]decan-2-one] were, in that order, 32% and 55.
For the molecule `CC(C)(C)CC(=O)N1CCC2(CC1)NC(Cc1ccccc1)C(=O)N2Cc1ccccc1` (centres unmarked) [Example 230, 1,3-Dibenzyl-8-(3,3-dimethylbutyryl)-1,4,8-triazaspiro[4,5]decan-2-one], the inhibition at 1 µM on 5-HT transporter stood at 72%. Besides, the BTX inhibition in assay [1] was 30.
On the same counts, the results for `CC(C)C1NC2(CCN(C(=O)c3ccccc3C(=O)OCc3ccccc3)CC2)N(Cc2ccccc2)C1=O` (centres unmarked) [Example 236, Benzyl 2-(1-benzyl-3-isopropyl-2-oxo-1,4,8-triazaspiro[4,5]decan-8-carbonyl)benzoate] are 48% and 50.
For the molecule `CCC(C(=O)N1CCC2(CC1)NC(Cc1ccccc1)C(=O)N2Cc1ccccc1)c1ccccc1` (centres unmarked) [Example 237, 1,3-Dibenzyl-8-(2-phenylbutyryl)-1,4,8-triazaspiro[4,5]decan-2-one], the inhibition at 1 µM on 5-HT transporter amounted to 63%. The BTX inhibition in assay [1] is 42.
Turning to `CSCCC1NC2(CCN(C(=O)c3c(Cl)ccc(C)c3F)CC2)N(Cc2ccccc2)C1=O` (centres unmarked) [Example 240, 1-Benzyl-8-(6-chloro-2-fluoro-3-methylbenzoyl)-3-(2-methylsulfanylethyl)-1,4,8-triazaspiro[4,5]decan-2-one], the inhibition at 1 µM at 5-HT transporter stood at 54%. This molecule returned a BTX inhibition in assay [1] of 30.
Turning to `CCCCN1C(=O)C(Cc2ccccc2)NC12CCN(C(=O)c1cc(C(C)(C)C)nn1C)CC2` (centres unmarked) [Example 249, 3-Benzyl-1-butyl-8-(5-tert-butyl-2-methyl-2H-pyrazole-3-carbonyl)-1,4,8-triazaspiro[4,5]decan-2-one], the inhibition at 1 µM at 5-HT transporter amounted to 55%. Also, the BTX inhibition in assay [1] was 34.
In the case of `CCSc1ncccc1C(=O)N1CCC2(CC1)NC(CC(C)C)C(=O)N2CCCCOC(C)=O` (centres unmarked) [Example 257, Butyl 4-[8-(2-ethylsulfanylpyridin-3-carbonyl)-3-isobutyl-2-oxo-1,4,8-triazaspiro[4,5]dec-1-yl]acetate], at 5-HT transporter, the “Uptake 5-HT, rat, 1 μM, % inhibition” value worked out at 59%. The BTX inhibition in assay [1] worked out at 35.

Source of the values: patent US7951815B2, “Substituted 1,4,8-triazaspiro [4,5]decan-2-one compounds” (Gruenenthal GmbH, priority 2004, dated 2011).
